# In patent publication US20250270180A1, “MEK INHIBITORS AND THERAPEUTIC USES THEREOF” (Immuneering Corporation, priority 2020, published 2025):
# Where two headings read alike, the source gives them in different places.
# Key:
# CYP450 2D6 = CYP450 2D6 (Homo sapiens, UniProt P10635); test: CYP450 panel, 2D6; details: 10 μM; substrate dextromethophan
# A549 pERK = test: A549-pERK, 2 h (quantitative Western, Jess); assay type: cell-based; details: Homo sapiens, A549, 2 h, 10 nM, phospho:total ratio normalized to DMSO control
# In short: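 Cells treated in duplicate for 2 h with compound, lysed and protein-normalised (1 mg/mL pERK, 1.5 mg/mL pMEK). Quantitative capillary Western; phospho/total protein ratio normalised to DMSO.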
# CYP450 1A2 = molecular target: T1, CYP450 1A2 (Homo sapiens, UniProt P05177); test: CYP450 panel, 1A2; assay type: in vitro ADME; details: 10 μM; substrate phenacetin
# T1 sequence (P05177 1-516): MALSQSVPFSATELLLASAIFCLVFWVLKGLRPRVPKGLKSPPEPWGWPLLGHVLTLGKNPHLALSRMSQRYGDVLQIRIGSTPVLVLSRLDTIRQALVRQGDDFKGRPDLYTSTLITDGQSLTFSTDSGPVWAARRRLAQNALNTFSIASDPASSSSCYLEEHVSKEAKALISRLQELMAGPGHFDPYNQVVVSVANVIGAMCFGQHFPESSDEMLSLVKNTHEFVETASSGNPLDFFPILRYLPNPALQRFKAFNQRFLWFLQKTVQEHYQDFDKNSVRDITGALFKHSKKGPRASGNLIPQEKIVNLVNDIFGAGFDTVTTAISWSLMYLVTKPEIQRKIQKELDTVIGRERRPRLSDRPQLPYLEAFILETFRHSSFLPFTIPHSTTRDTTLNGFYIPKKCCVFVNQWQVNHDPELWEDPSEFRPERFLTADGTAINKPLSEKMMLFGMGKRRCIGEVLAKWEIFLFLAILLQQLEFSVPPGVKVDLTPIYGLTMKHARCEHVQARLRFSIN
# hERG Channel = hERG Channel (Homo sapiens, UniProt Q12809); test: cell-based
# CYP450 2B6 = molecular target: T2, CYP450 2B6 (Homo sapiens, UniProt P20813); test: CYP450 panel, 2B6; details: 10 μM; substrate bupropion
# T2 sequence (P20813 1-491): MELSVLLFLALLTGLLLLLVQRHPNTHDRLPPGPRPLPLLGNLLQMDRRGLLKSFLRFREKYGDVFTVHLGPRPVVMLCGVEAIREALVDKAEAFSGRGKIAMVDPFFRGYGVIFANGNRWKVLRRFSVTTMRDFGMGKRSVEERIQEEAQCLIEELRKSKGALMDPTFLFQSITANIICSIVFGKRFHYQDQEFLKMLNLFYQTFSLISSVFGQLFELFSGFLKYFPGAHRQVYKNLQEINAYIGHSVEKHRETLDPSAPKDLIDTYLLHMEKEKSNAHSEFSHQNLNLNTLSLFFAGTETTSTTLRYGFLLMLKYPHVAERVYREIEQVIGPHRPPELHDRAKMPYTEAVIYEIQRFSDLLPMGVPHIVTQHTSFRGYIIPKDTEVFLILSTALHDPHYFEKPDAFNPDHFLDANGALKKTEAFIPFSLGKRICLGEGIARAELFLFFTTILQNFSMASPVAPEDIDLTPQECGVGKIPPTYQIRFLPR
# [1] = Plasma stability, CD-1 mouse; assay type: in vitro ADME; details: 2 μM
# CYP450 2C19 = CYP450 2C19 (Homo sapiens, UniProt P33261); test: CYP450 panel, 2C19; details: 10 μM; substrate mephenytoin
# [2] = Plasma stability, beagle dog; assay type: in vitro ADME; details: 2 μM
# [3] = Microsome stability, CD-1 mouse; details: microsomes, 2 μM
# CYP450 2C9 = CYP450 2C9 (Homo sapiens, UniProt P11712); test: CYP450 panel, 2C9; details: 10 μM; substrate Diclofenac
# [4] = Microsome stability, beagle dog; assay type: in vitro ADME; details: microsomes, 2 μM
# CYP450 2C8 = molecular target: T3, CYP450 2C8 (Homo sapiens, UniProt P10632); test: CYP450 panel, 2C8; details: 10 μM; substrate amodiaquine
# T3 sequence (P10632 1-490): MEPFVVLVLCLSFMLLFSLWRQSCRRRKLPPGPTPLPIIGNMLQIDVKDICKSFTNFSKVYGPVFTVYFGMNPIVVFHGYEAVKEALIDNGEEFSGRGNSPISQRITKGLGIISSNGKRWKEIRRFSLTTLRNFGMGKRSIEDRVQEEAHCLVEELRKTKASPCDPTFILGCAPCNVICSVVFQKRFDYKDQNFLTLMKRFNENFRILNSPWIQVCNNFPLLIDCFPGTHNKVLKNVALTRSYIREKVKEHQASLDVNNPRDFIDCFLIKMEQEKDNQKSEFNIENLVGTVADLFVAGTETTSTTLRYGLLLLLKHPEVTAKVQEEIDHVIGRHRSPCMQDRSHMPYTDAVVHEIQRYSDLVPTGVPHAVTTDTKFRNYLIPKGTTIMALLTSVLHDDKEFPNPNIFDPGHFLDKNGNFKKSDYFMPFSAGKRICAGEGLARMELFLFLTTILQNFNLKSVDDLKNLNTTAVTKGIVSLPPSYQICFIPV
# [5] = Absorption & efflux: Caco-2 permeability; details: human
# CYP450 3A4 = CYP450 3A4 (Homo sapiens, UniProt P08684); test: CYP450 panel, 3A4; details: 10 μM; for 3A4*: substrate midazolam; for 3A4^: substrate testosterone
# Plasma stability, human = assay type: in vitro ADME; details: 2 μM
# [6] = Microsome stability, human; assay type: in vitro ADME; details: microsomes, 2 μM
# [7] = tested on: A549 CRAF BP (MEK phosphorylation); test: A549-CRAF BP 100 nM, 2 h (pMEK); assay type: cell-based; details: Homo sapiens, A549, 2 h, phospho:total ratio normalized to DMSO control
# Procedure: A549 or […] cells were treated in duplicate for two hours with compounds at varying concentrations. After two hours, the cells were lysed, snap frozen, and stored at −80° C. After storage, the lysate was quantified with the Bradford assay. Before the lysates were prepared to run on the Jess, the lysates were diluted to 1 mg/mL for pERK analysis and 1.5 mg/mL pMEK analysis using quantitative Western blotting. ERK and MEK phosphorylation levels were estimated by taking the ratio of phospho-protein to total protein and normalizing to the DMSO control. The results of this study are described in Tables 14-16.
# [8] = Pharmacokinetics, single dose, 2-hour tissue levels in Colon26 tumor bearing mice; assay type: in vivo; details: single dose 100 mg/kg p.o., 2-hour post dose; for concentration at 2 h: female, athymic BALB/c nude or BALB/c, mouse, po
# Procedure: Female mice (either athymic BALC/c nude, or BALB/c mice) were inoculated with a single subcutaneous injection of 0.2 ml of mouse Colon-26 cell suspension (1×10^5 cells per animal) in the inguinal region. Colon26 (C26) tumor bearing mice received a single dose (3 mice/treatment) of vehicle (10% DMSO/90% [20% SBE-β-CD in saline], pH 5) containing compounds at 100 mg/kg by gavage (p.o.) and 2-hour post dose humanely euthanized.
# Blood was obtained through cardiac puncture into K+EDTA tubes, mixed by inversion and centrifuged to obtain the plasma. Tissues were excised, cleaned of surrounding tissues. All samples immediately snap frozen in liquid N2 prior to LC-MS/MS analysis (using Waters HSS T3 2.1×50 mm (1.8 um) LC column, and an API-6500 Electrospray MS unit).
# [9] = Caco-2, A-B Permeability Ranking
# [10] = Caco-2, Mean Papp A-B (10^−6 cm/s)
# Sequence of CYP450 3A4 (P08684 whole entry): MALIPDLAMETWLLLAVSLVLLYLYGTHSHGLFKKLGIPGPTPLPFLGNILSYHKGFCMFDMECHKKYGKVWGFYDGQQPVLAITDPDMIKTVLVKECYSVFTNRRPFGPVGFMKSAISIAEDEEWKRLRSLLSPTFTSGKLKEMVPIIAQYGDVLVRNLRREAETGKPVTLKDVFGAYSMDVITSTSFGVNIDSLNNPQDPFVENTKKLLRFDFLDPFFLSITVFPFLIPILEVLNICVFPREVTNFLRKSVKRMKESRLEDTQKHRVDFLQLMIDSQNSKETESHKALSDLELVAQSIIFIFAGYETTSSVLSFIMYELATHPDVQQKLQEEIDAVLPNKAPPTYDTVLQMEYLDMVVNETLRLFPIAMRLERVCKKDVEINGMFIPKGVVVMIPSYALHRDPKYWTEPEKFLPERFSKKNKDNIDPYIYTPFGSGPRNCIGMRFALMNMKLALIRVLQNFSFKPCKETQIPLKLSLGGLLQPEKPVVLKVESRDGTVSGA
# Sequence of CYP450 2C19 (P33261 whole entry): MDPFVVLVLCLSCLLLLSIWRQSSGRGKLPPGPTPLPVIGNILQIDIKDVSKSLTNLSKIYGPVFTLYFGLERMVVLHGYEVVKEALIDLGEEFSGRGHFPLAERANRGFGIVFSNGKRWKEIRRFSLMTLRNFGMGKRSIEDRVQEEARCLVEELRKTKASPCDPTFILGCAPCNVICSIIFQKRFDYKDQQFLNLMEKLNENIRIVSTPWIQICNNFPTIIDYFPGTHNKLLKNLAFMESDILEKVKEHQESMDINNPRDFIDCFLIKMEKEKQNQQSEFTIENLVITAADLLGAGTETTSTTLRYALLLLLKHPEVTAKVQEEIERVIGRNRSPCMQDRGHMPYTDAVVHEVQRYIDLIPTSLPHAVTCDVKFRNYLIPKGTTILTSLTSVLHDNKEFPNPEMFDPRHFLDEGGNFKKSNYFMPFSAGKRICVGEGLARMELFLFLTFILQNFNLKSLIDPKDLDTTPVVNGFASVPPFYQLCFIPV
# Sequence of CYP450 2D6 (P10635 whole entry): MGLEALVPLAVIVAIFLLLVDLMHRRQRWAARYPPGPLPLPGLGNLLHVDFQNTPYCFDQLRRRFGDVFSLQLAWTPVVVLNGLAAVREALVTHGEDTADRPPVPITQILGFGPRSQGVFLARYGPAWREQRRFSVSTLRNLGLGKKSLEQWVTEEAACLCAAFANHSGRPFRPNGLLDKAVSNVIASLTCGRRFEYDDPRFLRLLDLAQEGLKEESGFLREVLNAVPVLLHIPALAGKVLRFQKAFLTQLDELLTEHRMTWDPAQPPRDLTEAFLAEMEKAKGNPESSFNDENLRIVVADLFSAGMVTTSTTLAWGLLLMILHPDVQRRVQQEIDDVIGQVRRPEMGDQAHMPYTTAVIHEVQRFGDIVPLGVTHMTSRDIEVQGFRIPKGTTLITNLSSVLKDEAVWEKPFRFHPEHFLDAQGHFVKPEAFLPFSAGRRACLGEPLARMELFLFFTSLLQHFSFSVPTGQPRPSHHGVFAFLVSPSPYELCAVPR
# Sequence of CYP450 2C9 (P11712 whole entry): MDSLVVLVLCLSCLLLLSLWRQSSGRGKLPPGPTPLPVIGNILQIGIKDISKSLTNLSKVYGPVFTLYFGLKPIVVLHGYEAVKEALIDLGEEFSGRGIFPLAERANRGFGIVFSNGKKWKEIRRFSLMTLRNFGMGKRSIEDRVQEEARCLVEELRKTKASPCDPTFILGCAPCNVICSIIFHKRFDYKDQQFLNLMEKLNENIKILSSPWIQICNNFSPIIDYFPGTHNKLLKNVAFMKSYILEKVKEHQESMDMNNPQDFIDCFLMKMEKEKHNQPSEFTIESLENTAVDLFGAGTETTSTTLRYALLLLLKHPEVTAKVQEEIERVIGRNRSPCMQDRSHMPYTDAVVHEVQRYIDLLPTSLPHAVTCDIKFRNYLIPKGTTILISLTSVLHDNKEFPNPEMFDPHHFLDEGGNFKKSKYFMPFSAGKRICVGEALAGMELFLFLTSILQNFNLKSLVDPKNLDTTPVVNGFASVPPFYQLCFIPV
# Sequence of hERG Channel (Q12809 whole entry): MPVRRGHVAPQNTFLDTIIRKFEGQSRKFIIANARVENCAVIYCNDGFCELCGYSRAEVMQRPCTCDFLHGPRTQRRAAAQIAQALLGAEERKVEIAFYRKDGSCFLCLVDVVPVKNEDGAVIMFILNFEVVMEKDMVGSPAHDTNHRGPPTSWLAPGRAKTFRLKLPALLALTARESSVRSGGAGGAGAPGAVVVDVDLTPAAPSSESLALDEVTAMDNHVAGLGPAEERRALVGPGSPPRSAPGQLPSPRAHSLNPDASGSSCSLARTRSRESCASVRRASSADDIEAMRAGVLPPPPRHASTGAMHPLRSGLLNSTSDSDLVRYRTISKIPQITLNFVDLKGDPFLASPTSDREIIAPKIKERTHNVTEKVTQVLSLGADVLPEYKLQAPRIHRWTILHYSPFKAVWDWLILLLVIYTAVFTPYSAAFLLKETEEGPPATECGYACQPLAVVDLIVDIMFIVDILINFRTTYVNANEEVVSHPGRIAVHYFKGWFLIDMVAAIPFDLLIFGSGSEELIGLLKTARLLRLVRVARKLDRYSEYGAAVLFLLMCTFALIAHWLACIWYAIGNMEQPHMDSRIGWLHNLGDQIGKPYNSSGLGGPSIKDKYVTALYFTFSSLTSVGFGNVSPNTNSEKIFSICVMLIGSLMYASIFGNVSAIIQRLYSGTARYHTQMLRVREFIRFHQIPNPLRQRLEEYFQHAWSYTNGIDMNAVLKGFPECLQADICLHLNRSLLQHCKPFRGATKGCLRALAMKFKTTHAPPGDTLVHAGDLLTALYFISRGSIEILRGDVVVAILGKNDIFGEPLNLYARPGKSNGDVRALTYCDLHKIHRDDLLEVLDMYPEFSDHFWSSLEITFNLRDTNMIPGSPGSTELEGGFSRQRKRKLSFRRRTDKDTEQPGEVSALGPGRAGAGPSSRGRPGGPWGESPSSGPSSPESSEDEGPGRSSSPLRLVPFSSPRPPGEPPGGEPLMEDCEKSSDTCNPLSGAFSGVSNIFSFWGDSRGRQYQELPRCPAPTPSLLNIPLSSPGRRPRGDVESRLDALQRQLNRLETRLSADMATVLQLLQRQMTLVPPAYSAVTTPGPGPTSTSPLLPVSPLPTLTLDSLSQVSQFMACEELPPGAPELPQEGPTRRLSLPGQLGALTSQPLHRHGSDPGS
SMILES,2D6* (CYP450 2D6),activity at 0.01 µM (A549 pERK),1A2* (CYP450 1A2),IC50 (hERG Channel),2B6* (CYP450 2B6),CD-1 Mouse (% Reamining @2 hour) [1],2C19* (CYP450 2C19),Beagle Dog (% Reamining @2 hour) [2],CD-1 Mouse (% Reamining @1 hour) [3],2C9* (CYP450 2C9),Beagle Dog (% Reamining @1 hour) [4],2C8* (CYP450 2C8),"Papp B→A at 2 h, 10 μM [5]","efflux ratio at 2 h, 10 μM [5]","Papp A→B at 2 h, 10 μM [5, 9]","Papp A→B at 2 h, 10 μM [5, 10]",3A4* (CYP450 3A4),3A4^ (CYP450 3A4),"Human (% Reamining @2 hour) (Plasma stability, human)",Human (% Reamining @1 hour) [6],also measured
CNS(=O)(=O)Nc1cccc(Cc2c(CN3CCN(Cc4ccccc4)CC3)c3ccc(OC(=O)N(C)C)cc3oc2=O)c1F [Compound 16],55.0,91.6%,6.9,0.1 µM,11.6,92.7%,88.4,101.2%,0.6%,42.4,0.4%,45.5,5.61 ×10⁻⁶ cm/s,0.743,> 1 ×10⁻⁶ cm/s,7.55 ×10⁻⁶ cm/s,75.1,92.1,99.0%,1.4%,–
C#CCNCc1c(Cc2cccc(NS(=O)(=O)NC)c2F)c(=O)oc2cc(OC(=O)N(C)C)ccc12 [Compound 14],6.6,64%,6.3,19.4 µM,15.6,95.0%,4.0,91.2%,13.2%,8.2,51.6%,8.4,26.1 ×10⁻⁶ cm/s,2.8,> 1 ×10⁻⁶ cm/s,9.34 ×10⁻⁶ cm/s,26.7,39.3,96.0%,38.1%,"activity at 0.1 µM [7]: 59.1%; concentration at 2 h ([8]; liver, read-out: Liver): 17.8 ng/g; concentration at 2 h ([8]; muscle, read-out: Muscle): 19 ng/g; concentration at 2 h ([8]; plasma, read-out: Plasma): 18.5 ng/mL; concentration at 2 h ([8]; tumor, read-out: Tumor): 2.68 ng/g"
CNS(=O)(=O)Nc1cccc(Cc2c(CN3CCNCC3)c3ccc(OC(=O)N(C)C)cc3oc2=O)c1F [Compound 10],−3.4,27.7%,0.4,> 30 µM,22.4,97.7%,4.8,96.2%,91.3%,1.8,73.9%,−1.0,3.8 ×10⁻⁶ cm/s,56.3,< 1 ×10⁻⁶ cm/s,0.0676 ×10⁻⁶ cm/s,17.3,16.2,92.1%,80.1%,activity at 0.1 µM [7]: 42.2%
CNS(=O)(=O)Nc1cccc(Cc2c(CNCC#N)c3ccc(OC(=O)N(C)C)cc3oc2=O)c1F [Compound 13],−2.6,–,6.5,> 30 µM,15.8,87.1%,6.2,95.9%,16.8%,−4.6,69.6%,6.2,20 ×10⁻⁶ cm/s,5.57,> 1 ×10⁻⁶ cm/s,3.59 ×10⁻⁶ cm/s,25.7,34.9,87.3%,57.7%,"concentration at 2 h ([8]; liver, read-out: Liver): 36.6 ng/g; concentration at 2 h ([8]; tumor, read-out: Tumor): 26 ng/g; Muscle [8]: BQL; Plasma [8]: BQL"
